This passage reports IC50 results from ChEMBL document CHEMBL3108720, “Polygonumosides A-D, stilbene derivatives from processed roots of Polygonum multiflorum” (J Nat Prod, 2014).

The test has as its system Radical scavenging activity. The experiment in a line: Antioxidant activity of the compound assessed as DPPH free radical scavenging activity after 30 mins. Format: functional. (DPPH is a stable violet radical that fades when it is reduced.)
Consider `OC[C@H]1O[C@@H](Oc2c(O)cc(O)cc2[C@H](O)[C@@H](c2ccc(O)cc2)c2c(O)cc(O)c(O[C@@H]3O[C@H](CO)[C@@H](O)[C@H](O)[C@H]3O)c2/C=C/c2ccc(O)cc2)[C@H](O)[C@@H](O)[C@@H]1O`, for which the IC50 (as a rule, the concentration that inhibits the measured activity by half) is more than 2000 µM.
The result for `OC[C@H]1O[C@@H](Oc2c(O)cc(O)cc2[C@@H](O)[C@H](c2ccc(O)cc2)c2c(O)cc(O)c(O[C@@H]3O[C@H](CO)[C@@H](O)[C@H](O)[C@H]3O)c2/C=C/c2ccc(O)cc2)[C@H](O)[C@@H](O)[C@@H]1O` reads more than 2000 µM; that for `O=c1oc2cc(O[C@@H]3O[C@H](CO)[C@@H](O)[C@H](O)[C@H]3O)c3c(c2c2c(O)c(O)c(O)cc12)O[C@@H](c1ccc(O)cc1)C3`, 569 µM; that for `O=c1oc2cc(O[C@@H]3O[C@H](CO)[C@@H](O)[C@H](O)[C@H]3O)c3c(c2c2c(O)c(O)c(O)cc12)O[C@H](c1ccc(O)cc1)C3`, 298 µM.
